Test results published in patent US20250025444A1, “TREATMENT OF NEURODEGENERATIVE DISEASES VIA ADMINISTRATION OF BUNTANETAP AND A PHOSPHODIESTERASE INHIBITOR” (ANNOVIS BIO, INC., priority 2022, published 2025).
Marks after values point to notes of the source that are not given here.

Assays:
[1] = tested on: mouse hippocampal slices perfused with 200 nM oligomeric Aβ; test: Electrophysiological analysis (LTP, CA1 fEPSP) of hippocampal slices perfused with oligomeric Aβ; assay type: cell-based, C57BI6 mice; details: for Aβ-induced LTP defect: 200 nM oligomeric Aβ
Protocol: Animals: C57BI6 mice of both sexes were used for these experiments. They were obtained by a breeding colony maintained at the animal facility of Columbia University.
Aβ was prepared as previously described (Stine at al, J Biol Chem. 2003).
Electrophysiological Analysis was performed on […] hippocampal slices, cut with a tissue chopper and maintained in an interface chamber at 29° C. for 90 min prior to recording. Briefly, CA1 fEPSPs were recorded by placing both the stimulating and the recording electrodes in CA1 stratum radiatum. Basal synaptic transmission was assayed, either by plotting the stimulus voltages against slopes of fEPSP, or by plotting the peak amplitude of the fiber volley against the slope of the fEPSP. A 10 min baseline was recorded every min at an intensity that evokes a response, ˜35% of the maximum evoked response in the presence of vehicle. Then slices were either perfused with 200 nM oligomeric Aβ or vehicle with or without compound for 20 min prior to applying a theta burst stimulation (4 pulses at 100 Hz, with the bursts repeated at 5 Hz and each tetanus including 3 ten-burst trains separated by 15 sec). Data was subjected to statistical analyses to determine the effects of combination on inhibiting synaptic dysfunction.
Slices were coded to blind investigators with respect to treatment. Results were expressed with Standard Error of the Mean (SEM). Level of significance was set for p<0.05. Results were analyzed by ANOVA analysis with post-hoc correction.

[2] = in vivo; cited from earlier work
[3] = 3 phase 3 clinical studies, failed; cited from earlier work
[4] = cited from earlier work
clinical = details: human, brain (relative to plasma)
[5] = tested on: early AD patients and early PD patients; test: Phase 2a double-blind, placebo-controlled study in early AD and early PD patients; assay type: in vivo, human
APP [6] = test: APP in vitro, Western blot in SH-SY-5Y human neuroblastoma cells; assay type: cell-based; details: SH-SY-5Y cells, 0, 0.1, 1, 5 and 10 μM
Excerpt: (§1) Buntanetap's effect on neurotoxic proteins.

[7] = tested on: Ts65dn mouse model of Down syndrome (DS); details: cited from earlier work
APP and its fragments [8] = test: APP in vivo: APP/PS1 transgenic AD mice, hippocampus
Excerpt: as §1
FIG. 2A, APP in vivo. […] GAPDH and Synaptophysin were loading controls. FIG. 2 also includes a collection of graphs showing relative density of APP plotted against control and time after buntanetap treatment; relative density of CTFβ plotted against control and time after buntanetap treatment; relative density of CTFα plotted against control and time after buntanetap treatment; Aβ42 levels in brain tissue plotted against control and time after buntanetap treatment; and Aβ40 levels in brain tissue plotted against control and time after buntanetap treatment. Finally, FIG. 2 also includes a Western blot showing levels of APP, NSB, CTFβ, and CTFα after buntanetap treatment over time (minutes).

[9] = tested on: early AD patients and early PD patients; details: cited from earlier work
tau [10] = details: Human tau mice, unpublished observation; cited from earlier work
αSYN [11] = details: neuroblastoma cells; cited from earlier work
tau [12] = details: unpublished observation, Peter Davies Laboratory; cited from earlier work
[13] = tested on: APP/PS1 transgenic (tg) mouse model of AD; details: cited from earlier work
[14] = tested on: traumatic brain injury rats; details: cited from earlier work
[15] = tested on: APP, Tau, and αSYN in the cerebrospinal fluid (CSF); test: Study of MCI subjects: CSF and plasma markers before and after 10 days of buntanetap (proof of mechanism); details: 4×60 mg/day
[16] = tested on: patients with mild to moderate AD; test: Randomized, double-blind, placebo-controlled Phase II/III study in mild to moderate AD (NCT05686044); assay type: in vivo, human
Protocol: A randomized, double-blind, placebo-controlled Phase II/III study trial investigating the efficacy, safety, and tolerability of buntanetap in patients with mild to moderate AD was conducted. This was a dose-ranging study where patients received either one of three doses of buntanetap (7.5 mg, 15 mg, or 30 mg) or placebo on top of their standard of care for 12 weeks. In this study, over 700 patients were screened, a total of 353 patients were enrolled, and 325 patients completed the study across 54 sites in the US. The study included mild to moderate AD patients whose Mini Mental State Examination (MMSE) scores at baseline ranged from 14 to 24. (www.clinicaltrials.gov (NCT05686044)).
Beyond safety, the trial assessed the changes in two co-primary endpoints: Alzheimer's Disease Assessment Scale-Cognitive Subscale 11 (ADAS-Cog 11) and Alzheimer's Disease Cooperative Study Clinician's Global Impression of Change (ADCS-CGIC), which assess cognition and activities of daily living. The study monitored for safety and collected plasma to measure several biomarkers to assess the disease state, potential disease progression, and treatment effects.

[17] = tested on: fully differentiated Down syndrome nerve cells; details: cited from earlier work
APP and its fragments [18] = details: APP/PS1 transgenic mice, literature report; cited from earlier work
[19] = tested on: APP, Tau, and αSYN in the cerebrospinal fluid (CSF); details: cited from earlier work
[20] = tested on: human SNCAA53T tg mouse model of PD; details: cited from earlier work
APP [21] = details: literature report; cited from earlier work
αSYN [22] = details: transgenic Parkinson's animals, brain and gut; cited from earlier work
rat acute glaucoma model = details: cited from earlier work

COc1ccc(CNc2c(CO)cnc3c(C4CC4)cc(C#N)cc23)cc1Cl [7a, 4-[(3-Chloro-4-methoxybenzyl)amino]-8-cyclopropyl-3-(hydroxymethyl) quinoline-6-carbonitrile]
Aβ-induced LTP defect ([1]; 7a 1 nM alone): did not ameliorate | % Improvement (based on change in Residual Potential; veh minus wt ab = 100%) ([1]; ab + 7a 1 nM): 14.23% | Residual Potential (mean) ([1]; ab + 7a 1 nM): 147.78 | % Improvement (based on change in Residual Potential; veh minus wt ab = 100%) ([1]; ab + 7a 10 nM): 59.63% | Residual Potential (mean) ([1]; ab + 7a 10 nM): 174.99 | % Improvement (based on change in Residual Potential; veh minus wt ab = 100%) ([1]; ab + 7a 50 nM): 106.8% | Residual Potential (mean) ([1]; ab + 7a 50 nM): 207.77

COc1ccc(CN=c2[nH]c(N3CCC[C@H]3CO)ncc2C(=O)NCc2ncccn2)cc1Cl [avanafil]
half-life [2]: about 5 hours

CN1CC[C@@]2(C)c3cc(OC(=O)Nc4ccccc4)ccc3N(C)[C@@H]12 [phenserine, (−)-N-phenylcarbamoyl eseroline]
side effects [3]: high cholinomimetic side effects

CN1CC[C@]2(C)c3cc(OC(=O)Nc4ccccc4)ccc3N(C)C12 (single isomer, unassigned) [buntanetap]
tolerability ([4]; doses up to 4×60 mg daily×10 days): well tolerated | terminal half-life ([4]; plasma, all doses, cleared biphasically): 4.3 to 4.7 h | Kp (clinical): ~8 | axonal and synaptic function ([5]; AD and PD patients): improved | blood brain barrier passage ([5]; AD and PD patients): crossed the blood brain barrier | inflammatory markers ([5]; AD and PD patients): reduced | neurotoxic protein biomarkers ([5]; AD and PD patients): reduced | cognition as measured by ADAS-Cog11 and WAIS coding speed ([5]; AD patients, 80 mg QD, significant versus baseline): improved | motor function as measured by MDS-UPDRS (Part II, III, IV and total) ([5]; PD patients, all doses 5-80 mg QD, maximum improvement for 10 & 20 mg): improved | WAIS speed and accuracy ([5]; PD patients, significant versus placebo at 5 mg, 20 mg and 80 mg): improved | APP level (Western blot, in relation to Actin standard) (APP [6]): lowers APP in vitro in a dose-dependent manner | memory and learning [7]: Restored | duration of reduction of APP and all related peptides in hippocampus after the last dose (APP and its fragments [8]; APP/PS1 mice): at least 9 hours | APP and its fragments in hippocampus (APP and its fragments [8]; APP/PS1 transgenic AD mice): reduced | levels of neurotoxic proteins and inflammatory factors (biomarker data) ([9]; AD and PD cohorts): trend in lowering | ADAS-Cog11 and WAIS coding ([9]; AD patients): statistically significant improvements | MDS-UPDRS and WAIS coding ([9]; PD patients): statistically significant improvements | safety and tolerability ([9]; doses up to 80 mg, AD and PD patients): well tolerated | Cmax and AUC ([9]; plasma, up to 80 mg QD): increased with dose without evidence for a plateau | % Improvement (based on change in Residual Potential; veh minus wt ab = 100%) ([1]; ab + buntanetap 1 μM): 26.7% | Residual Potential (mean) ([1]; ab + buntanetap 1 μM): 152.11 | % Improvement (based on change in Residual Potential; veh minus wt ab = 100%) ([1]; ab + buntanetap 10 μM): 110.7% | Residual Potential (mean) ([1]; ab + buntanetap 10 μM): 210.49 | Aβ-induced LTP defect ([1]; buntanetap 1 μM alone): did not ameliorate | tau in vivo (tau [10]): lowers | αSYN in vitro (αSYN [11]): lowers | tau in vitro (tau [12]): lowers | memory and learning ([13]; APP/PS1 tg mouse model of AD): Restored | impaired synaptic transmission ([13]; hippocampus of APP/PS1 tg mice): Normalized | inflammation ([14]; rat brain after TBI): lowered | impaired synaptic transmission ([14]; rat striatum after TBI): Normalized | nerve cell protection ([14]; rat substantia nigra after TBI): protected | memory and learning ([14]; traumatic brain injury rats): Preserved | levels of APP, Tau, and αSYN in the cerebrospinal fluid (CSF) [15]: normalized | Non-Responders (Number) ([16]; 7.5 mg): 5 | Non-Responders (Percentage) ([16]; 7.5 mg): (26.32%) | Responders (Number) ([16]; 7.5 mg): 14 | Responders (Percentage) ([16]; 7.5 mg): (73.68%)** | Non-Responders (Number) ([16]; 15 mg): 7 | Non-Responders (Percentage) ([16]; 15 mg): (28.00%) | Responders (Number) ([16]; 15 mg): 18 | Responders (Percentage) ([16]; 15 mg): (72.00%)** | Non-Responders (Number) ([16]; 30 mg): 3 | Non-Responders (Percentage) ([16]; 30 mg): (12.50%) | Responders (Number) ([16]; 30 mg): 21 | Responders (Percentage) ([16]; 30 mg): (87.50%)*** | difference in the proportion of participants who improved relative to placebo ([16]; 30 mg group): three-fold | anterograde and retrograde vesicle transport [17]: Normalized | levels of APP and all its fragments (APP and its fragments [18]): lowers | duration of effect in lowering neurotoxic proteins and inflammation after the last dose ([19]; MCI subjects, CSF, 12 h sampling period): ≥ 12 h | CSF Aβ42 ([19]; MCI subjects): trend to lower | CSF levels of sAPPα, sAPPβ, t-tau, p-tau, and specific inflammatory markers ([19]; MCI subjects): significantly lowered | half-life in CSF ([19]; MCI subjects): > 12 h | inflammation ([19]; human CSF of MCI subjects): lowered | colonic motility [20]: Restored | levels of APP in vitro in neuroblastoma cells (APP [21]): lowers | αSYN in vivo (αSYN [22]): lowers | retina (rat acute glaucoma model; acute glaucoma): Preserved | nerve cell protection (rat acute glaucoma model; rat acute glaucoma model): protected
